# Reference: paper PMC9698057, “Insights into Antimalarial Activity of N-Phenyl-Substituted Cinnamanilides” (Molecules, 2022)
# Several values for one entry are separate records, joined by “and”; a condition that tells them apart may be missing. Identical values can stand only once. Like-named read-outs stand apart in the source and are kept apart here.
# Tests used:
# [1] = system: Plasmodium falciparum 3D7/MRA-102; assay: In vitro antiplasmodial activity; type: cell-based; settings: for IC50: chloroquine-sensitive strain 3D7/MRA-102, 48 h incubation, n = 3, read-out: Pf IC50 ± SD; for antiplasmodial activity in words: P. falciparum 3D7/MRA-102
# [2] = Lipophilicity determination by RP-HPLC (log of capacity factor k); type: physicochemical; settings: C18, isocratic methanol 72%/water 28%
# Experimental: Among the important parameters characterizing the physicochemical properties of the compounds, we studied the lipophilicity and electronic relations in the molecule. […] The lipophilicity was determined using RP-HPLC as the logarithm of capacity factor k. The retention times of individual compounds were determined under isocratic conditions, with methanol as an organic modifier in the mobile phase using end-capped non-polar C18 stationary RP columns. In addition, the lipophilicity expressed as log P and Clog P was calculated using two commercially available programs: ACD/Percepta ver.
# A chromatographic column Symmetry® C18 5 μm, 4.6 × 250 mm, Part No. W21751W016 (Waters Corp., Milford, MA, USA) was used. The HPLC separation process was monitored by the EZ CHROM Elite® software ver. 3.2.0 (Hitachi High Technologies America). The total flow of the column was 1.0 mL/min, injection 10 μL, column temperature 40 °C, and sample temperature 10 °C. The detection wavelength 214 nm was chosen. A KI methanolic solution was used for the dead time (tD) determination. Retention times (tR) were measured in minutes. […] The capacity factors were calculated according to the formula k = (tR − tD)/tD, where tR is the retention time of the solute and tD is the dead time obtained using an unretained analyte. Each experiment was repeated three times.
# [3] = system: Mycobacterium tuberculosis H37Ra/ATCC 25177; set-up: method as in PMID 30087309, PMID 32916979; settings: M. tuberculosis H37Ra/ATCC 25177; cited from earlier work
# THP1-Blue™ NF-κB cells = settings: read-out: cytotoxicity IC50; human monocytic leukemia cell line THP1-Blue™ NF-κB; cited from earlier work
# [4] = Plasmodium falciparum, 3D7, 48 h
SMILES,"IC50 [1, 4]",log k [2],IC50 [1],Mtb MIC [3],IC50 (THP1-Blue™ NF-κB cells),antiplasmodial activity in words [1]
"CCN(CC)CCCC(C)Nc1ccnc2cc(Cl)ccc12 (stereo not shown) [CQ, chloroquine, reference compound]",0.5 ± 0.2 µM,–,–,–,–,–
"Cc1cccc(NC(=O)/C=C/c2ccccc2)c1 [Compound 2, (2E)-N-(3-methylphenyl)-3-phenyl-prop-2-enamide]",21.6 µM,0.2729,21.9 ± 6.3 µM,67.4 µM,–,–
Cc1ccc(NC(=O)/C=C/c2ccccc2)cc1 [Compound 3],> 35 µM,0.2640,–,134 µM,–,–
O=C(/C=C/c1ccccc1)Nc1cccc(C(F)(F)F)c1 [Compound 6],> 35 µM,0.4859,–,27.5 µM,11.6 ± 1.13 µM,–
Cc1ccc(C)c(NC(=O)/C=C/c2ccccc2)c1 [Compound 7],> 35 µM,0.2691,–,254 µM,–,–
O=C(/C=C/c1ccccc1)Nc1ccc(Cl)cc1Cl [Compound 8],> 35 µM,0.5278,–,–,–,inactive
O=C(/C=C/c1ccccc1)Nc1cc(Cl)ccc1Cl [Compound 9],> 35 µM,0.5799,–,876 µM,–,–
O=C(/C=C/c1ccccc1)Nc1c(Cl)cccc1Cl [Compound 10],> 35 µM,0.0632,–,876 µM,–,–
O=C(/C=C/c1ccccc1)Nc1ccc(Cl)c(Cl)c1 [Compound 11],> 35 µM,0.6821,–,27.4 µM,6.28 ± 2.32 µM,–
O=C(/C=C/c1ccccc1)Nc1cc(Cl)cc(Cl)c1 [Compound 12],> 35 µM,0.8155,–,27.4 µM,2.43 ± 1.06 µM,–
O=C(/C=C/c1ccccc1)Nc1ccc(Br)cc1Br [Compound 13],> 35 µM,0.6152,–,>339 µM,–,inactive
O=C(/C=C/c1ccccc1)Nc1c(Br)cccc1Br [Compound 14],> 35 µM,0.0992,–,167 µM,–,–
"O=C(/C=C/c1ccccc1)Nc1cc(C(F)(F)F)cc(C(F)(F)F)c1 [Compound 15, (2E)-N-[3,5-bis(trifluoromethyl)phenyl]-3-phenylprop-2-enamide]",6.5 ± 3.6 µM,0.9814,–,22.3 µM,2.17 ± 1.19 µM,–
COc1ccc([N+](=O)[O-])cc1NC(=O)/C=C/c1ccccc1 [Compound 16],> 35 µM,0.1581,–,>859 µM,–,–
O=C(/C=C/c1ccccc1)Nc1ccc([N+](=O)[O-])cc1C(F)(F)F [Compound 17],> 35 µM,0.3794,–,>381 µM,–,–
"O=C(/C=C/c1ccccc1)Nc1ccc([N+](=O)[O-])c(C(F)(F)F)c1 [Compound 18, (2E)-N-[4-nitro-3-(trifluoromethyl)phenyl]-3-phenylprop-2-enamide]",2.2 ± 1.9 µM,0.5004,–,>381 µM,–,–
O=C(/C=C/c1ccccc1)Nc1cc(Cl)ccc1F [Compound 19],16 ± 4.2 µM,0.36 and 0.3692,–,>465 µM,–,–
O=C(/C=C/c1ccccc1)Nc1cc(Br)ccc1F [Compound 20],> 35 µM,0.4875,–,199 µM,–,–

SMILES,"IC50 [1, 4]",log k [2],IC50 [1],Mtb MIC [3],IC50 (THP1-Blue™ NF-κB cells),antiplasmodial activity in words [1]
O=C(/C=C/c1ccccc1)Nc1ccc(Br)c(F)c1 [Compound 21],10.3 ± 4.6 µM,–,–,>414 µM,–,–
O=C(/C=C/c1ccccc1)Nc1ccc(C(F)(F)F)c(F)c1 [Compound 22],9.3 ± 5.3 µM,0.5789,–,>414 µM,–,–
"O=C(/C=C/c1ccccc1)Nc1cc(F)ccc1Br [Compound 23, (2E)-N-(2-bromo-5-fluorophenyl)-3-phenylprop-2-enamide]",3.8 ± 0.61 µM,0.4588,–,199 µM,–,–
"O=C(/C=C/c1ccccc1)Nc1ccc(Br)cc1Cl [Compound 24, (2E)-N-(4-bromo-2-chlorophenyl)-3-phenylprop-2-enamide]",0.58 ± 0.002 µM,0.6710,–,>766 µM,–,–
O=C(/C=C/c1ccccc1)Nc1ccc(Br)c(Cl)c1 [Compound 25],8.2 ± 4.7 µM,0.6611,–,>383 µM,6.5 ± 1 µM,–
O=C(/C=C/c1ccccc1)Nc1ccc(Cl)cc1Br [Compound 26],> 35 µM,0.5476,–,>383 µM,–,–
O=C(/C=C/c1ccccc1)Nc1cc(C(F)(F)F)ccc1Cl [Compound 27],> 35 µM,0.6178,–,785 µM,–,–
O=C(/C=C/c1ccccc1)Nc1cc(C(F)(F)F)ccc1Br [Compound 28],> 35 µM,0.5561,–,>348 µM,–,–
O=C(/C=C/c1ccccc1)Nc1ccc(F)cc1C(F)(F)F [Compound 29],> 35 µM,0.1607,–,>414 µM,–,–
O=C(/C=C/c1ccccc1)Nc1ccc(Cl)cc1C(F)(F)F [Compound 30],> 35 µM,0.4113,–,>394 µM,–,–
O=C(/C=C/c1ccccc1)Nc1ccc(Br)cc1C(F)(F)F [Compound 31],> 35 µM,0.4683,–,>348 µM,–,–
"O=C(/C=C/c1ccccc1)Nc1c(F)cc(F)cc1F [Compound 32, (2E)-3-phenyl-N-(2,4,6-trifluorophenyl)-prop-2-enamide]",> 35 µM,−0.0831,–,>462 µM,–,–
O=C(/C=C/c1ccccc1)Nc1cc(F)c(F)c(F)c1 [Compound 33],4.3 ± 2.4 µM,0.4893,–,>462 µM,–,–
O=C(/C=C/c1ccccc1)Nc1cc(Cl)c(Cl)cc1Cl [Compound 34],> 35 µM,0.8373,–,–,–,–
"O=C(/C=C/c1ccccc1)Nc1cc(Cl)c(Cl)c(Cl)c1 [Compound 35, (2E)-3-phenyl-N-(3,4,5-trichlorophenyl)prop-2-enamide]",13 ± 3.8 µM,0.9671,–,>395 µM,–,–
"O=C(/C=C/c1ccccc1)Nc1c(Br)cc(C(F)(F)F)cc1Br [Compound 36, (2E)-N-[2,6-dibromo-4-(trifluoromethyl)-phenyl]-3-phenylprop-2-enamide]",2 ± 1.9 µM,0.4321,–,>287 µM,–,–
O=C(/C=C/c1ccccc1)Nc1c(Br)cc(F)c(Cl)c1Br [Compound 37],> 35 µM,0.3139,–,>298 µM,–,–
"NNC(=O)c1ccncc1 [INH, isoniazid, reference compound]",–,–,–,36.6 µM,–,–
